Reference: US7649020B2, “Modafinil polymorphic forms” (Cephalon France, priority 2002, dated 2010)
Like-named read-outs stand apart in the source and are kept apart here.

What was measured:
[1] = Comparative bioavailability study in dogs, plasma levels of modafinil after a single oral dose; assay type: in vivo, dog
Procedure: A comparative bioavailability study was carried out in dogs to determine the pharmacokinetic profile of the new polymorphs form IV and form V of modafinil. The study was aimed to compare plasma levels of polymorphs form IV and form V versus the reference form I. Six male beagle dogs were randomly assigned to three groups according to a (3×3) Latin-square design. Each group was administered a single oral 30 mg/kg body weight dose of either form IV or form V or the reference form I and two successive administrations were separated by a one-week wash-out period according to the protocol design reported table 1.
Dogs were fasted overnight prior dosing and food was returned to them four hours after dosing. Blood samples were collected after each dose by venepuncture at predose (within one hour of dosing) and at 0.5, 1, 1.5, 2, 2.5, 3, 4, 5.5, 7, 9 and 24 hours post-dose. Blood samples were collected on heparinized test tubes and immediately centrifuged at 3,000 rpm. Then plasma was drawn off and stored frozen (−20° C.) until analyzed. Plasma concentrations of modafinil were determined by validated high-pressure liquid chromatography according to the method of Moachon G. et al. (J. Chromatog. B 1994; 654: 91). Pharmacokinetic parameters were determined using noncompartimental analysis.

[2] = Relative stability of polymorphic forms; assay type: physicochemical; conditions: 20° C. / room temperature
Excerpt: Modafinil form I was identified as the thermodynamic form (at room temperature). Form I is obtained via crystallization, preferably under atmospheric pressure, at room temperature.

[3] = Table 2, male beagle dogs, single oral 30 mg/kg, mean ± SEM, 30 mg/kg
[4] = Table 3, dogs, single oral 30 mg/kg, mean ± SEM, 30 mg/kg

With `NC(=O)C[S+]([O-])C(c1ccccc1)c1ccccc1` (racemic) [Form IV, 2-(benzhydrylsulfinyl) acetamide] the “C4 h (plasma level measured at 4 hours post-dose)” value [1, 3] was 21230 ± 1880 ng/mL, the “Cmax (maximum plasma level of modafinil)” value [1, 3] was 24980 ± 1120 ng/mL and the AUC0-24 h ([1]; Table 2, male beagle dogs, single oral 30 mg/kg, trapezoidal rule 0 to 24 hours post-dose, mean ± SEM, 30 mg/kg) was 200.69 ± 18.09 µg·h/mL. For the same compound, the “systemic exposure (Cmax and AUC0-24h) compared with form I” value ([1]; dogs, equivalent dose 30 mg/kg by oral route) was “substantially higher”.
With `NC(=O)C[S+]([O-])C(c1ccccc1)c1ccccc1` (racemic) [Form I, 2-(benzhydrylsulfinyl) acetamide, reference compound] the “stability of the polymorphic form” value [2] was “most stable form”, the concentration at 4 h ([1]; male, beagle, dog, plasma, po, 30 mg/kg, Table 2, male beagle dogs, single oral 30 mg/kg, mean ± SEM, read-out: C4 h (plasma level measured at 4 hours post-dose)) was 15400 ± 2560 ng/mL and the Cmax ([1]; male, beagle, dog, plasma, po, 30 mg/kg, Table 2, male beagle dogs, single oral 30 mg/kg, mean ± SEM, read-out: Cmax (maximum plasma level of modafinil)) was 18600 ± 2300 ng/mL. For the same compound, the AUC(0-t) ([1]; male, beagle, dog, plasma, po, 30 mg/kg, Table 2, male beagle dogs, single oral 30 mg/kg, trapezoidal rule 0 to 24 hours post-dose, mean ± SEM, read-out: AUC0-24 h) was 165 ± 23.7 µg·h/mL, the concentration at 1 h ([1]; male, beagle, dog, plasma, po, 30 mg/kg, Table 3, dogs, single oral 30 mg/kg, mean ± SEM, read-out: C1 h (plasma level at 1 hour post-dose)) was 8810 ± 2450 ng/mL and the concentration at 1.5 h ([1]; male, beagle, dog, plasma, po, 30 mg/kg, Table 3, dogs, single oral 30 mg/kg, mean ± SEM, read-out: C1.5 h (plasma level at 1.5 hours post-dose)) was 12700 ± 2390 ng/mL. It also gave a concentration at 2 h ([1]; male, beagle, dog, plasma, po, 30 mg/kg, Table 3, dogs, single oral 30 mg/kg, mean ± SEM, read-out: C2 h (plasma level at 2 hours post-dose)) of 14200 ± 2230 ng/mL, a concentration at 2.5 h ([1]; male, beagle, dog, plasma, po, 30 mg/kg, Table 3, dogs, single oral 30 mg/kg, mean ± SEM, read-out: C2.5 h (plasma level at 2.5 hours post-dose)) of 14200 ± 1950 ng/mL and a Cmax ([1]; male, beagle, dog, plasma, po, 30 mg/kg, Table 3, dogs, single oral 30 mg/kg, mean ± SEM, read-out: Cmax) of 18600 ± 2300 ng/mL. For the same compound, the Tmax ([1]; male, beagle, dog, plasma, po, 30 mg/kg, Table 3, dogs, single oral 30 mg/kg, mean, read-out: Tmax (time to reach peak plasma level of modafinil)) was 3 h and the MRT ([1]; male, beagle, dog, plasma, po, 30 mg/kg, Table 3, male beagle dogs, single oral 30 mg/kg, mean ± SEM, read-out: MRT (mean residence time)) was 6.91 ± 0.53 h.
In the case of `NC(=O)C[S+]([O-])C(c1ccccc1)c1ccccc1` (racemic) [Form V, 2-(benzhydrylsulfinyl) acetamide], the “C1 h (plasma level at 1 hour post-dose)” value [1, 4] is reported as 12410 ± 2070 ng/mL, the “C1.5 h (plasma level at 1.5 hours post-dose)” value [1, 4] is reported as 15.31 ± 2.06 µg/mL and the “C2 h (plasma level at 2 hours post-dose)” value [1, 4] is reported as 16560 ± 2480 ng/mL. For the same compound, the “C2.5 h (plasma level at 2.5 hours post-dose)” value [1, 4] was 16.37 ± 2.38 µg/mL, the Cmax [1, 4] was 18720 ± 2090 ng/mL and the “Tmax (time to reach peak plasma level of modafinil)” value ([1]; Table 3, dogs, single oral 30 mg/kg, mean, 30 mg/kg) was 1.67 h. For the same compound, the “MRT (mean residence time)” value ([1]; Table 3, male beagle dogs, single oral 30 mg/kg, mean ± SEM, 30 mg/kg) was 6.11 ± 0.36 h, the “reduction in time needed to reach the concentration Cmax versus reference form I” value ([1]; dogs, equivalent oral dose 30 mg/kg) was about 50% and the “mean Tmax value relative to that of reference polymorph I” value ([1]; dogs, oral 30 mg/kg, data of Table 3) was “about 50%”.
In the case of `NC(=O)C[S+]([O-])C(c1ccccc1)c1ccccc1` (stereo not shown) [modafinil form II, 2-(benzhydrylsulfinyl) acetamide], the “stability of the polymorphic form” value [2] is reported as “unstable”.
